Legend:
[1] = system: MV4-11; assay: Cytotoxicity against human MV4-11 cells after 24 hrs by CellTiter-Blue assay; format: functional; conditions: MV4-11, 24 h
[2] = target: Bromodomain-containing protein 4 (Homo sapiens, UniProt O60885); assay: Binding affinity to BRD4 (unknown origin) expressed in Escherichia coli BL21 after 1 hr by proprietary competition assay
[3] = target: Serine/threonine-protein kinase PLK1 (Homo sapiens, UniProt P53350); assay: Binding affinity to PLK1 (unknown origin) expressed in HEK293 cells after 1 hr by proprietary competition assay; format: cell-based
Chain of Serine/threonine-protein kinase PLK1 (P53350 whole entry): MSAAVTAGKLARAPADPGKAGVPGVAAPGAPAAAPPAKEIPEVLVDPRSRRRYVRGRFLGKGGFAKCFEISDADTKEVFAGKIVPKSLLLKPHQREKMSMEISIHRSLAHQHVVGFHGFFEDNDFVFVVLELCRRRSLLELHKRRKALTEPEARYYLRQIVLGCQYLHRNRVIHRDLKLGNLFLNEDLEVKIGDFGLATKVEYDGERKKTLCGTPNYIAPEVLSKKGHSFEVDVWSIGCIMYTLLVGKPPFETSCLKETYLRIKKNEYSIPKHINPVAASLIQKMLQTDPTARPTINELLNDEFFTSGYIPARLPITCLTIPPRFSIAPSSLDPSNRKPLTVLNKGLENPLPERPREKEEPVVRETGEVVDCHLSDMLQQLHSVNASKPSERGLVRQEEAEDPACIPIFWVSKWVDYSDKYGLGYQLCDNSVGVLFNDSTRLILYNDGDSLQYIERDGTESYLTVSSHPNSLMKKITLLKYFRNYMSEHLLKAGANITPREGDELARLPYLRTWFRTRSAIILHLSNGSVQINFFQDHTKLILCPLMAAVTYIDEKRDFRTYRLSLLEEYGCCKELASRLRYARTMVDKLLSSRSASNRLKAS

| Structure (SMILES) | GI50 [1] | Ki [2] | Ki [3] |
| --- | --- | --- | --- |
| Cc1sc2c(c1C)C(c1ccc(Cl)cc1)=N[C@@H](CC(=O)OC(C)(C)C)c1nnc(C)n1-2 | 0.08 µM | – | – |
| CC[C@@H]1C(=O)Nc2cnc(Nc3ccc(C(=O)NC4CCN(C)CC4)cc3OC)nc2N1C1CCCC1 | 0.219 µM | 7.95 µM | – |
| CC[C@@H]1C(=O)N(CC)c2cnc(Nc3ccc(C(=O)NC4CCN(C)CC4)cc3OC)nc2N1C1CCCC1 | 0.392 µM | 0.47 µM | 0.00091 µM |
| CC[C@@H]1C(=O)N(C(C)C)c2cnc(Nc3ccc(C(=O)NC4CCN(C)CC4)cc3OC)nc2N1C1CCCC1 | 2.67 µM | 4.5 µM | – |
| CC[C@@H]1C(=O)N(CC(C)C)c2cnc(Nc3ccc(C(=O)NC4CCN(C)CC4)cc3OC)nc2N1C1CCCC1 | 2.53 µM | > 10 µM | – |
| CC[C@@H]1C(=O)N(Cc2ccccc2)c2cnc(Nc3ccc(C(=O)NC4CCN(C)CC4)cc3OC)nc2N1C1CCCC1 | 7.28 µM | > 10 µM | – |
| COc1cc(C(=O)NC2CCN(C)CC2)ccc1Nc1ncc2c(n1)N(C1CCCC1)CC(=O)N2C | 0.219 µM | 1.4 µM | – |
| CC[C@H]1C(=O)N(C)c2cnc(Nc3ccc(C(=O)NC4CCN(C)CC4)cc3OC)nc2N1C1CCCC1 | 0.019 µM | – | – |
| COc1cc(C(=O)NC2CCN(C)CC2)ccc1Nc1ncc2c(n1)N(C1CCCC1)[C@H](Cc1ccccc1)C(=O)N2C | 1.87 µM | > 10 µM | 0.0042 µM |
| CC[C@@H]1C(=O)N(C)c2cnc(Nc3ccc(C(=O)NC4CCN(C)CC4)cc3OC)nc2N1CC(C)C | 0.04 µM | 0.97 µM | 0.00695 µM |
| CC[C@@H]1C(=O)N(C)c2cnc(Nc3ccc(C(=O)NC4CCN(C)CC4)cc3OC)nc2N1Cc1cccc(Br)c1 | 0.675 µM | 0.0087 µM | 0.0058 µM |
| CC[C@@H]1C(=O)N(C)c2cnc(Nc3ccc(C(=O)NC4CCN(C)CC4)cc3)nc2N1C1CCCC1 | 0.003 µM | 0.06 µM | – |
| CC[C@@H]1C(=O)N(C)c2cnc(Nc3ccc(C(=O)NC4CCN(C)CC4)c(OC)c3)nc2N1C1CCCC1 | 0.015 µM | 0.037 µM | 0.00052 µM |
| CC[C@@H]1C(=O)N(C)c2cnc(Nc3ccc(C(=O)NC4CCN(C)CC4)cc3F)nc2N1C1CCCC1 | 0.004 µM | 0.046 µM | – |
| CC[C@@H]1C(=O)N(C)c2cnc(Nc3ccc(C(=O)NC4CCN(C)CC4)cc3OCC(C)C)nc2N1C1CCCC1 | 0.154 µM | 0.029 µM | – |
| CC[C@@H]1C(=O)N(C)c2cnc(Nc3ccc(C(=O)NC4CCN(C)CC4)cc3OCc3ccccc3)nc2N1C1CCCC1 | 0.356 µM | 0.1 µM | – |
| CC[C@@H]1C(=O)N(C)c2cnc(Nc3ccc(C(=O)NC4CCN(C)CC4)cc3OC3CCCC3)nc2N1C1CCCC1 | 0.24 µM | 0.027 µM | 0.00084 µM |
| CC[C@@H]1C(=O)N(C)c2cnc(Oc3ccc(C(=O)NC4CCN(C)CC4)cc3OC)nc2N1C1CCCC1 | 1.34 µM | 0.099 µM | 0.24 µM |
| CC[C@@H]1C(=O)N(C)c2cnc(Nc3ccc(C(=O)NC4CCN(C)CC4)cc3OC)nc2N1C1CCCC1 [BI-2536] | 0.0152 µM | – | – |
| C[C@@H](Oc1cc(-n2cnc3ccc(CN4CCN(C)CC4)cc32)sc1C(N)=O)c1ccccc1C(F)(F)F [GSK-461364] | 0.679 µM | – | – |
